Data reported in patent US5817670A, “Naphthyridine derivatives and pharmaceutical compositions thereof” (Yamanouchi Pharmaceutical Co., Ltd., priority 1994, dated 1998).
Structures can show the parent of a compound that is named as a salt.

target: type IV phosphodiesterase; assay: Phosphodiesterase inhibition activity (in vitro), Type IV; assay type: biochemical, human (peripheral blood of a healthy person)
Experimental: (1) Method for measuring type IV phosphodiesterase inhibition activity
The following assay was used for the evaluation of the capability of the compounds of the present invention to inhibit type IV phosphodiesterase.
1) Physiological saline (200 ml) supplemented with dextran (3%) was added to 500 ml of heparinized peripheral blood of a healthy person and incubated at 37° C. for 40 minutes to effect precipitation of erythrocytes. The supernatant after precipitation of erythrocytes was recovered and centrifuged once, and the resulting precipitate was suspended in buffer A (140 mM NaCl, 5 mM KCl, 5 mM glucose and 10 mM HEPES, pH 7.4), overlaid on a solution for density gradient centrifugation use (Ficoll solution) and then centrifuged at room temperature for 40 minutes at 450×g, thereby separating monocyte fraction and granulocyte fraction. The granulocyte fraction was washed once with buffer B (140 mM NaCl, 5 mM KCl, 1 mM CaCl2, 1 mM MgCl2, 5 mM glucose and 10 mM HEPES, pH 7.4) and suspended in buffer C (20 mM Bis-Tris, 5 mM dithioerythritol, 2 mM EGTA and 50 mM sodium acetate, pH 6.5) containing a protease inhibitor (50 μM phenyl-methyl-sulfonyl-fluoride, 5 μM pepstatin A, 40 μM leupeptin, 20 μM aprotinin or 2 mM benzamidine) and then the cells were disrupted using polytron and sonicator and subjected to ultracentrifugation (4° C., 100,000×g, 60 minutes) to give a soluble fraction.
2) The thus obtained soluble fraction was applied to a column of 1.6×10 cm packed with Q Sepharose which had been equilibrated with buffer C. Next, the column was washed with 300 ml of buffer C to remove non-absorbed protein. Phosphodiesterase was eluted with 200 ml of buffer C having 0.05 to 1.25M linear gradient of sodium acetate to collect 40 fractions each containing 5.0 ml eluate. Each fraction was checked for cAMP- and cGMP-metabolizing phosphodiesterase activities. Fractions having no cGMP- but cAMP-metabolizing activity and showing disappearance of the metabolizing activity by 10 μM rolipram (a type IV phosphodiesterase selective inhibitor) were collected to be used as a stock solution for the examination of type IV phosphodiesterase inhibition activity.
3) A predetermined amount of each compound to be tested was subjected to 10 minutes of reaction at 30° C. in a reaction mixture containing 40 mM Tris-HCl (pH 8.0), 5 mM MgCl2, 4 mM 2-mercaptoethanol, 0.3 μM cilostamide (a type III phosphodiesterase selective inhibitor), 1 μM cAMP, 10 nM ^3 H-cAMP and the type IV phosphodiesterase stock solution. The reaction solution was boiled at 90° C. for 1 minute, ice-cooled, mixed with 1 unit of 5'-nucleotidase and then subjected to 10 minutes of reaction at 30° C., and the reaction was stopped by the addition of 1 ml of methanol. The reaction solution was passed through a Dowex 1×8 column to adsorb un-hydrolyzed material and then the radioactivity was measured.
4) Concentration of each compound to be tested which inhibits 50% of the metabolic activity of type IV phosphodiesterase was calculated and expressed as IC50. (2) Method for measuring the activity to inhibit various phosphodiesterase isozymes
Results: The inhibition activity (IC50) value for h type of phosphodiesterase (Type I, Type II, Type III, e IV, and Type V) is shown in the following table.

| Structure (SMILES) | IC50 [µM] |
| --- | --- |
| CCn1c(=O)cc(-c2cccc(Cl)c2)c2cccnc21 [Example 15, 4-(3-Chlorophenyl)-1-ethyl-1,8-naphthyridin-2(1H)-one] | 58.9 |
| Cc1cc(C)c2c(-c3cccc(Cl)c3)cc(=O)n(C)c2n1 [Example 24, 4-(3-chlorophenyl)-1,5,7-trimethyl-1,8-naphthyridin-2(1H)-one] | 98.3 |
| CCc1cc(C)c2c(-c3ccccc3)cc(=O)n(C)c2n1 [Example 26, 7-Ethyl-1,5-dimethyl-4-phenyl-1,8-naphthyridin-2(1H)-one] | 84.9 |
| CCc1cc(C)c2c(-c3cccc(Cl)c3)cc(=O)n(C)c2n1 [Example 27, 4-(3-Chlorophenyl)-7-ethyl-1,5-dimethyl-1,8-naphthyridin-2(1H)-one] | > 30 |
| CCn1c(=O)cc(-c2cccc(Cl)c2)c2c(C)cc(C)nc21 [Example 29, 4-(3-Chlorophenyl)-1-ethyl-5,7-dimethyl-1,8-naphthyridin-2(1H)-one] | > 30 |
| CCn1c(=O)cc(-c2cccc(Br)c2)c2c(C)cc(C)nc21 [Example 30, 4-(3-Bromophenyl)-1-ethyl-5,7-dimethyl-1,8-naphthyridin-2(1H)-one] | 31.2 |
| CCc1cc(C)c2c(-c3cccc(Br)c3)cc(=O)n(CC)c2n1 [Example 31, 4-(3-bromophenyl)-1,7-diethyl-5-methyl-1,8-naphthyridin-2(1H)-one] | > 30 |
| CCCn1c(=O)cc(-c2cccc(Br)c2)c2c(C)cc(CC)nc21 [Example 33, 4-(3-Bromophenyl)-7-ethyl-5-methyl-1-propyl-1,8-naphthyridin-2(1H)-one] | > 30 |
| CCc1cc(C)c2c(-c3cccc(Cl)c3)cc(=O)n(C3CC3)c2n1 [Example 35, 4-(3-Chlorophenyl)-1-cyclopropyl-7-ethyl-5-methyl-1,8-naphthyridin-2(1H)-on] | 21.9 |
| CCn1c(=O)cc(-c2ccccc2)c2c(C)cc(C)nc21 [Example 38, 1-Ethyl-5,7-dimethyl-4-phenyl-1,8-naphthyridin-2(1H)-one] | > 30 |
| CCc1cc(C)c2c(-c3ccccc3)cc(=O)n(CC)c2n1 [Example 40, 1,7-Diethyl-5-methyl-4-phenyl-1,8-naphthyridin-2(1H)-one] | 31.9 |
| CCc1cc(C)c2c(-c3cccc(Cl)c3)cc(=S)n(C)c2n1 [Example 43, 4-(3-chlorophenyl)-7-ethyl-1,5-dimethyl-1,8-naphthyridine-2(1H)-thione] | > 30 |
| CCn1c(=O)cc(C2CCCCC2)c2cccnc21 [Example 46, 4-cyclohexyl-1-ethyl-1,8-naphthyridin-2(1H)-one 0.45 hydrochloride 0.25 hydrate] | > 30 |
| CCc1cc(C)c2c(C3CCCCC3)cc(=O)n(CC)c2n1 [Example 49, 4-cyclohexyl-1,7-diethyl-5-methyl-1,8-naphthyridin-2(1H)-one] | 30.2 |
